Key:
[1] = test system: MDA-MB-231-BCRP clone 23 cells; experiment: Resazurin reduction assay, MDA-MB-231-BCRP clone 23; format: cell-based; conditions: Homo sapiens; MDA-MB-231-BCRP clone 23, resazurin assay, 72 h
Text: (§1) The cell lines used in the present work, their origins and maintenance conditions were previously reported. In brief, drug-sensitive CCRF-CEM and multidrug resistant P-glycoprotein-over-expressing CEM/ADR5000 leukemia cells, MDA-MB-231-pcDNA3 breast cancer cells and their transfectant subline MDA-MB-231-BCRP clone 23, HCT116 (p53^+/+) colon cancer cells and its knockout clone HCT116 (p53^-/-), U87.MG glioblastoma multiform cells and their transfectant subline U87.MGΔEGFR as well as HEK293 human embryonic kidney cells transfected with or without a cDNA for ABCB5 were used. The human peripheral mononuclear cells (PMNC) were isolated from fresh blood samples of a healthy donor by using Histopaque® (Sigma-Aldrich, Taufkirchen, Germany).
(§2) Resazurin reduction assay was conducted to test the cytotoxicity of the compounds. This assay is based on the reduction of resazurin to resorufin by viable cells. […] Briefly, aliquots of 0.5×10^4 adherent cells which were allowed to attach overnight and 1×10^4 suspension cells per well were seeded in 96-well-plates with or without the addition of varying concentrations of the test substance to get a total volume of 200 μL/well. After 72 h incubation and addition of resazurin (Sigma-Aldrich) for 4 h, staining was measured by an Infinite M2000 ProTM plate reader (Tecan, Germany) using an excitation wavelength of 544 nm and an emission wavelength of 590 nm. […]

[2] = test system: HCT116 (p53-/-) knockout colon cancer cells; experiment: Resazurin reduction assay, HCT116 (p53-/-); format: cell-based, human
Text: as §1, §2

[3] = test system: multidrug-resistant P-glycoprotein-overexpressing CEM/ADR5000 leukemia cells; experiment: Resazurin reduction assay, CEM/ADR5000; format: cell-based, human; conditions: Homo sapiens; CEM/ADR5000, resazurin assay, 72 h
Text: as §1
(§3) Resazurin reduction assay was conducted to test the cytotoxicity of the compounds. This assay is based on the reduction of resazurin to resorufin by viable cells. […] Briefly, aliquots of 0.5×10^4 adherent cells which were allowed to attach overnight and 1×10^4 suspension cells per well were seeded in 96-well-plates with or without the addition of varying concentrations of the test substance to get a total volume of 200 μL/well. After 72 h incubation and addition of resazurin (Sigma-Aldrich) for 4 h, staining was measured by an Infinite M2000 ProTM plate reader (Tecan, Germany) using an excitation wavelength of 544 nm and an emission wavelength of 590 nm. Each assay was independently performed for at least three times, with six parallel replicates each. The protocol has been recently reported. Fifty percent inhibition concentrations (IC50) represent the drug concentrations required to inhibit 50% of cell proliferation, which were fitted with nonlinear regression using GraphPad® Prism7.

CCRF-CEM cells [4] = experiment: Cell cycle analysis (PI, flow cytometry); format: cell-based, human; conditions: 4-fold IC50, 24 h
Experimental: The cells were collected, washed in PBS and fixed with ice-cold 96% ethanol. After washing the cells with PBS again, the cells were dissolved in PBS and stained with propidium iodide (PI, Sigma-Aldrich) at a final concentration of 50 μg/mL for 15 min in the dark. Cell cycle analyses were performed using a BD Accuri™ C6 Flow cytometer (Becton-Dickinson, Heidelberg, Germany) at 488 nm excitation wavelength, and emission was measured by a 610/20 nm band pass filter. All experiments were performed at least in triplicates. The protocol has been recently reported by us.

CCRF-CEM cells [5] = experiment: Protease viability marker assay (GF-AFC); format: cell-based; conditions: Homo sapiens, 72 h
Experimental: The protease viability marker assay was performed to exclude the possibility that the cytotoxicity of Aloe-emodin measured by the resazurin assay was artificially influenced by any non-intended interaction with Aloe-emodin-induced ROS generation. The assay measures the protease activity within living cells. The protease activity is restricted to intact viable cells and is measured using a flourogenic, cell permeant, peptide substrate (glyxyl-phenylalanyl-aminoflourocoumarin; GF-AFC). The substrate enters intact cells, where it is cleaved by proteases to generate a fluorescent signal proportional to the number of living cells. Briefly, CCRF-CEM cells (2×10^4cells/well) were seeded in 96 well plate. Aloe-emodin was added in a dose dependent manner (0.001 – 100 μM). After 72 h, 100 μL of GF-AFC substrate (Promega, Madison, USA) were added to each well, cells were incubated for 30 min at 37°C. Using Infinite M2000Pro™ plate reader (Tecan, Crailsheim, Germany), the fluorescent intensity was measured at an excitation wavelength 400 nm, and emitted light was collected at 505 nm.

[6] = test system: mRNA expression (DUSP6, HHEX, MCMDC2, CRCP) in CCRF-CEM cells; experiment: Microarray-based mRNA expression profiling; format: cell-based, human; conditions: CCRF-CEM treated with IC50 for 48 h vs DMSO; FC: fold change
Experimental: We performed microarray hybridizations to find clues on the possible mechanisms of action of Aloe-emodin. CCRF-CEM cells were treated with the IC50 of Aloe-emodin or DMSO for 48 h. Using Chipster software, 1712 genes were deregulated upon Aloe-emodin treatment in comparison with DMSO treatment as control. These genes were subsequently subjected to Ingenuity Pathway Analysis (IPA) to obtain profiles of possibly affected signaling pathways. The most pronounced molecular and cellular functions identified by IPA were: cell death and survival, cellular growth and proliferation, cellular development, gene expression, cellular function and maintenance (Figure 4A).
Total RNA was isolated by InviTrap Spin Universal RNA Mini kit (Stratec Molecular, Berlin, Germany) according to the manufacturer’s instructions. The quality control of total RNA, probe labeling, hybridization, scanning and data analysis was performed in the Genomics and Proteomics Core Facility at the German Cancer Research Center (DKFZ, Heidelberg, Germany). Details have been previously described. The Chipster software was used to filter the set of differentially expressed genes obtained from microarray hybridization (http://chipster.csc.fi/) with a p value lower than 0.05. These filtered genes with fold-changes of more than 1-fold were selected for Ingenuity Pathways Analysis Software (http://www.ingenuity.com/ Ingenuity Systems, Redwood City, CA, USA) to obtain profiles of genetic networks and signaling pathways. The protocol has been recently reported by us.

HEK293-ABCB5 cells = experiment: Resazurin reduction assay, HEK293-ABCB5; format: cell-based; conditions: Homo sapiens, 72 h
Text: as §1, §2

U87.MGΔEGFR cells = experiment: Resazurin reduction assay, U87.MGΔEGFR; format: cell-based; conditions: Homo sapiens, 72 h
Text: as §1, §2

[7] = test system: drug-sensitive CCRF-CEM leukemia cells; experiment: Resazurin reduction assay, CCRF-CEM; format: cell-based; conditions: Homo sapiens, 72 h
Text: as §1, §3

Structure (SMILES): O=C1c2cccc(O)c2C(=O)c2c(O)cc(CO)cc21 [Aloe-emodin]
- IC50 [1]: 26.9 µM
- degree of resistance (collateral sensitivity) ([2]; HCT116 (p53-/-) knockout cells vs HCT116 (p53+/+)): 0.68 fold
- IC50 ([2]; Homo sapiens, HCT-116, HCT116(p53-/-), resazurin assay, 72 h): 11.2 µM
- IC50 [3]: 12.8 µM
- cell cycle arrest (CCRF-CEM cells [4]): clear arrest in the S-phase
- IC50 (CCRF-CEM cells [5]): 13.8 µM
- Microarray data (FC), CRCP [6]: -2.219 FC
- Microarray data (FC), DUSP6 [6]: 2.403 FC
- Microarray data (FC), HHEX [6]: 2.321 FC
- Microarray data (FC), MCMDC2 [6]: -2.227 FC
- IC50 (HEK293-ABCB5 cells): 25.9 µM
- IC50 (U87.MGΔEGFR cells): 33.8 µM
- IC50 [7]: 9.87 µM

From paper PMC5915154, “Aloe-emodin as drug candidate for cancer therapy” (Oncotarget, 2018)
